Results on five compounds are retold here after patent US8927583B2, “Pesticidal composition comprising a 2-pyrdilmethylbenzamide derivative and an insecticide compound” (Bayer Cropscience AG, priority 2006, dated 2015).

Molecules are shown by their SMILES.

What all share (assay type): in vivo
The subject of assay [1] is Spodoptera frugiperda. Briefly: Spodoptera frugiperda test (cabbage leaf dip, larvae mortality). The following applies: cabbage leaves; for Efficacy in % after 4 d: mortality after 4 d; for Efficacy in % after 6 d: mortality after 6 d. The procedure: (§1) To produce a suitable preparation of active compound, 1 part by weight of active compound is mixed with the stated amount of solvent and emulsifier, and the concentrate is diluted with emulsifier-containing water to the desired concentration.
Cabbage leaves (Brassica oleracea) are treated by being dipped into the preparation of the active compound of the desired concentration and are infested with larvae of the fall army worm (Spodoptera frugiperda) as long as the leaves are still moist.
(§2) After the specified period of time, the mortality in % is determined. 100% means that all the caterpillars have been killed; 0% means that none of the caterpillars have been killed.

The subject of assay [2] is Plutella xylostella. As to the kind of experiment: Plutella xylostella test (cabbage leaf dip, larvae mortality). As to conditions: mortality after 3 d, cabbage leaves. Here is the method: To produce a suitable preparation of active compound, 1 part by weight of active compound is mixed with the stated amount of solvent and emulsifier, and the concentrate is diluted with emulsifier-containing water to the desired concentration. Cabbage leaves (Brassica oleracea) are treated by being dipped into the preparation of the active compound of the desired concentration and are infested with larvae of the diamond back moth (Plutella xylostella) as long as the leaves are still moist. After the specified period of time, the mortality in % is determined. 100% means that all the caterpillars have been killed; 0% means that none of the caterpillars have been killed.

Assay [3] deals with Spodoptera exigua. As to the kind of experiment: Spodoptera exigua test (cabbage leaf dip, larvae mortality). As to conditions: 500 ppm, mortality after 3 d, cabbage leaves. Here is the method:
as §1
Cabbage leaves (Brassica oleracea) are treated by being dipped into the preparation of the active compound of the desired concentration and are infested with larvae of the beet army worm (Spodoptera exigua) as long as the leaves are still moist.
as §2

As for `N#C/N=C1\SCCN1Cc1ccc(Cl)nc1` [Thiacloprid], the “Efficacy in % after 4 d” value in assay [1] (20 ppm) was 25%. With `CN/C(=N\[N+](=O)[O-])NCc1cnc(Cl)s1` [Clothianidin], the “Efficacy in % after 3 d” value in assay [2] (4 ppm) is on record as 0%.

Turning to `CN1COCN(Cc2cnc(Cl)s2)/C1=N\[N+](=O)[O-]` [Thiamethoxam], the “Efficacy in % after 6 d” value in assay [1] (100 ppm) came out at 0%. `O=[N+]([O-])NC1=NCCN1Cc1ccc(Cl)nc1` [Imidacloprid]: the “Efficacy in % after 3 d” value in assay [3] came to 40%. In the case of `O=C(NCc1ncc(C(F)(F)F)cc1Cl)c1c(Cl)cccc1Cl` [Fluopicolide, 2,6-dichloro-N-{[3-chloro-5-(trifluoromethyl)-2-pyridinyl]methyl}-benzamide], in assay [1] (200 ppm), the “Efficacy in % after 6 d” value turned out to be 0%. In assay [1] (500 ppm), the “Efficacy in % after 4 d” value is 0%. Further, the “Efficacy in % after 3 d” value in assay [2] (200 ppm) and in assay [3] was 0% each time.
